# Test results as given in patent US5760248A, “Tachykinin antagonists” (A.Menarini Industrie Farmaceutiche Riunite S.r.l., priority 1993, dated 1998).
# Target: T1, NK1 receptor (Homo sapiens, UniProt P25103)
# T1 construct: endogenous in cells; host or cells: IM9 cells (intact)
# Experiment: [3H] SP binding assay in IM9 Cell Line (intact cells)
# Description: Assessment of biological activity (antagonist activity on NK1 receptor) of compounds of this invention was performed by means of the following binding and functional assays:
# [3H] SP binding assay in IM9 Cell Line
# Binding assay was performed with intact cells as described by Goso et al (Eur.J.Pharmacol. 254,221,1994).
# T1 sequence (P25103 whole entry): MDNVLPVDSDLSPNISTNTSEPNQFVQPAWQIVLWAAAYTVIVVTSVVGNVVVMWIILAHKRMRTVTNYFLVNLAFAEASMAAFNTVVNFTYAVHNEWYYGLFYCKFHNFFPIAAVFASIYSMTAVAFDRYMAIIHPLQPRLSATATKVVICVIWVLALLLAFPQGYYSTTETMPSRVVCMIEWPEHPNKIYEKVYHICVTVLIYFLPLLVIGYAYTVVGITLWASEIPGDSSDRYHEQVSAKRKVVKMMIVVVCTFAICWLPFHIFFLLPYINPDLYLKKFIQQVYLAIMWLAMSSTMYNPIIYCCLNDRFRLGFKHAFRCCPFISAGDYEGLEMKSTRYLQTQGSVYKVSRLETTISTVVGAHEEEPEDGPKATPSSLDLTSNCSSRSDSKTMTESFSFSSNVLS
row,Compound,pKi (Substance P antagonism Results)
1,"CN(C(=O)Cc1ccccc1)[C@H](Cc1ccc2ccccc2c1)NC(=O)C1CCCCC1NC(=O)c1c[nH]c2ccccc12 (stereo partly drawn) [3 (slow), 1-{N-(1(H)indol-3-yl-carbonyl)(1S,2R)-2-aminocyclohexanecarbonyl}-amino-1-(N-methyl-N-phenylacetyl) amino-2(2-naphthyl)ethane]",< 5
2,O=C(NC1CCCCC1C(=O)N[C@@H](Cc1ccccc1)C(=O)OCc1ccccc1)c1c[nH]c2ccccc12 (stereo partly drawn) [1 (fast)],< 6
3,"C[C@@H](C(=O)N(C)[C@H](Cc1ccc2ccccc2c1)NC(=O)C1CCCCC1NC(=O)c1c[nH]c2ccccc12)c1ccccc1 (stereo partly drawn) [10 (fast), 1-{N-(1(H)indol-3-yl-carbonyl)(1R,2S)-2-aminocyclohexane-carbonyl}-amino-1-(N-methyl-N-((R)2-phenylpropionyl))Ammino-2-(2-naphthyl)ethane]",8.7
4,"O=C(Cc1ccccc1)N[C@H](Cc1ccccc1)NC(=O)C1CCCCC1NC(=O)c1c[nH]c2ccccc12 (stereo partly drawn) [2 (fast), 1-{N-(1(H)indol-3-yl-carbonyl) (1R,2S)-2-aminocyclohexanecarbonyl}-amino-1-(phenylacetyl)amino-2-phenyl-ethane]",< 6
5,O=C(NC1CCCCC1C(=O)N[C@H](COCc1cc(C(F)(F)F)cc(C(F)(F)F)c1)Cc1ccc2ccccc2c1)c1c[nH]c2ccccc12 (stereo partly drawn) [4 (fast)],< 5
6,"CN(C(=O)Cc1ccccc1)[C@H](Cc1ccc2ccccc2c1)NC(=O)C1CCCCC1NC(=O)c1c[nH]c2ccccc12 (stereo partly drawn) [3 (fast), 1-{N-(1(H)indol-3-yl-carbonyl) (1R,2S)-2-aminocyclohexanecarbonyl}-amino-1-(N-methyl-N-phenylacetyl)amino-2(2-naphthyl)ethane]",8.4
7,"C[C@H](C(=O)N(C)[C@H](Cc1ccc2ccccc2c1)NC(=O)C1CCCCC1NC(=O)c1c[nH]c2ccccc12)c1ccccc1 (stereo partly drawn) [9 (fast), 1-{N-(1(H)indol-3-yl-carbonyl)(1R,2S)-2-aminocyclohexanecarbonyl}-amino-1-(N-methyl-N-((S)2-phenylpropionyl))amino-2-(2-naphthyl)ethane]",< 5
8,"CN(C(=O)Cc1ccc(Cl)cc1)[C@H](Cc1ccc2ccccc2c1)NC(=O)C1CCCCC1NC(=O)c1c[nH]c2ccccc12 (stereo partly drawn) [11 (fast), 1-{N-(1(H)indol-3-yl-carbonyl)(1R,2S)-2-aminocyclohexanecarbonyl}-amino-1-(N-methyl-N-4-chlorophenylacetyl)amino-2(2-naphthyl)ethane]",8.4
9,"Cc1ccc(CC(=O)N(C)[C@H](Cc2ccc3ccccc3c2)NC(=O)C2CCCCC2NC(=O)c2c[nH]c3ccccc23)cc1 (stereo partly drawn) [12 (fast), 1-{N-(1(H)indol-3-yl-carbonyl)(1R,2S)-2-aminocyclohexanecarbonyl}-amino-1-(N-methyl-N-4-methylphenylacetyl)amino-2(2-naphthyl)ethane]",8.7
